Results published in ChEMBL document CHEMBL1687844, “In Vitro antiretroviral properties of S/GSK1349572, a next-generation HIV integrase inhibitor” (Antimicrob Agents Chemother, 2011).
Calls of active or inactive are those of the source. No cut-off for these calls is given here.

Key:
[1] = tested on: Human immunodeficiency virus 1; assay: Antiviral activity against Human immunodeficiency virus 1 Bal infected in human PBMC assessed as incorporation of [methly-3H]dTTP to viral DNA after 7 days by reverse transcriptase activity in presence of 100% human serum relative to control
[2] = tested on: Human immunodeficiency virus 1; assay: Antiviral activity against Human immunodeficiency virus 1 Bal infected in human PBMC assessed as incorporation of [methly-3H]dTTP to viral DNA after 7 days by reverse transcriptase activity in presence of 100% human serum; settings: 168 h
[3] = tested on: Human immunodeficiency virus 1; assay: Antiviral activity against pseudo Human immunodeficiency virus 1 Bal infected in human CIP4 after 2 days by luciferase reporter gene assay in presence of 40 mg/ml HAS relative to control; format: functional
[4] = tested on: Human immunodeficiency virus 1; assay: Antiviral activity against Human immunodeficiency virus 1 3B infected in human MT4 cells assessed as viral viability after 4 to 5 days by Cell titer Glo luminescent assay; format: functional, organism-based
[5] = Cytotoxicity against human MT4 cells after 2 days by Cell titer Glo luminescent assay; format: cell-based
[6] = tested on: Human immunodeficiency virus 2; assay: Antiviral activity against Human immunodeficiency virus 2 clinical isolate obtained from HIV infected patients; format: functional, organism-based
[7] = tested on: Human immunodeficiency virus 1; assay: Antiviral activity against Human immunodeficiency virus 1 NL432 infected in human MT4 cells assessed as inhibition of viral DNA integration after 18 hrs by quantitative PCR; format: functional, organism-based
[8] = tested on: Human immunodeficiency virus 1; assay: Antiviral activity against Human immunodeficiency virus 1 NL432 infected in human MT4 cells assessed as increase in 2-LTR circular DNA after 18 hrs by quantitative PCR; format: functional, organism-based
[9] = tested on: Human immunodeficiency virus 1; assay: Antiviral activity against Human immunodeficiency virus 1 3B infected in human MT4 cells assessed as incorporation of [methly-3H]dTTP to viral DNA after 7 days by reverse transcriptase activity in presence of 20% human serum albumin relative to control; format: functional
[10] = Cytotoxicity against PHA-stimulated human PBMC after 2 days by Cell titer Glo luminescent assay; format: cell-based
[11] = tested on: Human immunodeficiency virus 1; assay: Antiviral activity against PI-resistant Human immunodeficiency virus 1 NL432 harboring […] L24I/M46I/L63P/A71V/G73S/V82Tmutant infected in human MT4 cells after 2 to 3 days by reverse transcriptase activity; format: functional, organism-based; settings: Human immunodeficiency virus 1, NL432, MT4
[12] = Cytotoxicity against unstimulated human PBMC after 2 days by Cell titer Glo luminescent assay; format: cell-based
[13] = tested on: Human immunodeficiency virus 1; assay: Antiviral activity against Human immunodeficiency virus 1 3B infected in human MT4 cells assessed as incorporation of [methly-3H]dTTP to viral DNA after 7 days by reverse transcriptase activity in presence of […]; format: functional
[14] = Cytotoxicity against human IM9 cells after 2 days by Cell titer Glo luminescent assay; format: cell-based, IM-9
[15] = Cytotoxicity against human MOLT4 cells after 2 days by Cell titer Glo luminescent assay; format: cell-based, MOLT-4
[16] = tested on: Human immunodeficiency virus 1; assay: Antiviral activity against pseudo Human immunodeficiency virus 1 Bal infected in human CIP4 after 2 days by luciferase reporter gene assay in presence of 2 mg/ml AAG relative to control; format: functional
[17] = tested on: Human immunodeficiency virus 1; assay: Antiviral activity against pseudo Human immunodeficiency virus 1 Bal infected in human CIP4 after 2 days by luciferase reporter gene assay; format: functional, organism-based; settings: CIP4, 48 h
[18] = Cytotoxicity against human U937 cells after 2 days by Cell titer Glo luminescent assay; format: cell-based, U-937
[19] = tested on: Human immunodeficiency virus 1; assay: Ratio of EC90 for protein-activated Human immunodeficiency virus 1 Bal infected in human PBMC to EC50 Human immunodeficiency virus 1 Bal infected in human PBMC; format: functional
[20] = tested on: Human immunodeficiency virus 1; assay: Antiviral activity against Human immunodeficiency virus 1 Bal infected in human PBMC assessed as incorporation of [methly-3H]dTTP to viral DNA after 7 days by reverse transcriptase activity; format: functional, organism-based; settings: 168 h
[21] = tested on: Human immunodeficiency virus 1; assay: Antiviral activity against NNRTI-resistant Human immunodeficiency virus 1 NL432 harboring non-nucleotide reverse transcriptase […] mutant infected in human HeLa-CD4 cells after 2 to 3 days by reverse transcriptase activity; format: functional, organism-based; settings: Human immunodeficiency virus 1, NL432, CD4; pooled result: one value given for 9 cell lines, strains, targets or settings
[22] = tested on: Human immunodeficiency virus 1; assay: Antiviral activity against Human immunodeficiency virus 1 3B infected in human MT2 cells assessed as inhibition of virus induced cytopathic effect measured after 2 to 3 days by PCR; format: functional, organism-based
[23] = tested on: Human immunodeficiency virus 1; assay: Antiviral activity against Human immunodeficiency virus 1 NL432 infected in human MT4 cells assessed as effect on viral DNA production after 18 hrs by quantitative PCR; format: functional, organism-based
[24] = tested on: Human immunodeficiency virus 1; assay: Antiviral activity against Human immunodeficiency virus 1 3B harboring reverse transcriptase M184V, M184I, K82N mutant infected in human MT2 cells assessed as inhibition of virus induced cytopathic effect selected on day 14 after 4 passages by PCR analysis; format: functional, organism-based; settings: MT2, 336 h
[25] = tested on: Human immunodeficiency virus 1; assay: Antiviral activity against Human immunodeficiency virus 1 3B harboring reverse transcriptase M184V, M184I mutant infected in human MT2 cells assessed as inhibition of virus induced cytopathic effect selected on day 14 after 4 passages by PCR analysis; format: functional, organism-based; settings: MT2, 336 h
[26] = tested on: Human immunodeficiency virus 1; assay: Antiviral activity against Human immunodeficiency virus 1 3B harboring reverse transcriptase M184V mutant infected in human MT2 cells assessed as inhibition of virus induced cytopathic effect selected on day 14 after 4 passages by PCR analysis; format: functional, organism-based; settings: MT2, 336 h
[27] = tested on: Human immunodeficiency virus 1; format: functional, organism-based; settings: Human immunodeficiency virus 1, 3B, MT2
[28] = tested on: Human immunodeficiency virus 1; format: functional, organism-based; settings: Human immunodeficiency virus 1, 3B, MT2; remark: listed apart in the source
[29] = tested on: Human immunodeficiency virus 1; format: functional, organism-based; settings: Human immunodeficiency virus 1, 3B, MT2, 672 h
[30] = tested on: Human immunodeficiency virus 1; format: functional, organism-based; settings: Human immunodeficiency virus 1, 3B, MT2; remark: listed apart in the source
[31] = tested on: Human immunodeficiency virus 1; format: functional, organism-based; settings: Human immunodeficiency virus 1, 3B, MT2; remark: listed apart in the source
[32] = tested on: Human immunodeficiency virus 1; assay: Antiviral activity against Human immunodeficiency virus 1 3B harboring integrase T124A mutant gene infected in human MT2 cells assessed as inhibition of virus induced cytopathic effect selected after 14 passages measured after 2 to 3 days by PCR; format: functional, organism-based

In the case of `COc1cc2c(cc1Cc1cccc(Cl)c1F)c(=O)c(C(=O)O)cn2[C@H](CO)C(C)C`, the “fold change (FC)” value [1] is reported as 22, the EC50 [2] is reported as 20 nM and the EC90 [2] is reported as 78 nM.
In the case of `C[C@@H]1CCO[C@H]2Cn3cc(C(=O)NCc4ccc(F)cc4F)c(=O)c([O-])c3C(=O)N12.[Na+]` [DOLUTEGRAVIR SODIUM], the “fold change (FC)” value [3] is reported as 11, the EC50 [4] is reported as 0.71 nM and the CC50 at 48 h [5] is reported as 14 µM. For the same molecule, the EC50 [6] was 0.8 nM, the inhibition [7] was “Active” and the Activity [8] was “Active”. For the same molecule, the “fold change (FC)” value [9] was 32, the CC50 at 48 h [10] was 52 µM and the EC50 [11] was 0.36 nM. For the same molecule, the CC50 at 48 h [12] was 189 µM, the “fold change (FC)” value [13] was 75 and the CC50 at 48 h [14] was 4.8 µM. The CC50 at 48 h [15] was 15 µM, the “fold change (FC)” value [16] was 2.1 and the “fold change (FC)” value [1] was 75. The EC50 [2] was 38 nM, the EC90 [2] was 152 nM and the EC50 [17] was 2.2 nM. For the same molecule, the CC50 at 48 h [18] was 7 µM, the “fold change (FC)” value [19] was 3 and the EC50 [20] was 0.51 nM. The EC50 [21] was 1.3 nM, the EC50 [22] was 0.26 nM and the Activity [23] was “inactive”.
Molecule `Nc1ccn([C@@H]2CS[C@H](CO)O2)c(=O)n1` [LAMIVUDINE] has an EC50 [24] of 800 nM, an EC50 [25] of 800 nM and an EC50 [26] of 800 nM. The EC50 [22] was 800 nM.
`Cc1nnc(C(=O)NC(C)(C)c2nc(C(=O)NCc3ccc(F)cc3)c(O)c(=O)n2C)o1` [RALTEGRAVIR POTASSIUM] showed an EC50 [27] of 32 nM, an EC50 [28] of 6.4 nM and an EC50 [29] of 0.26 nM. It also gave an EC50 [30] of 1.3 nM, an EC50 [31] of 6.4 nM and an EC50 [2] of 5.6 nM. For the same molecule, the EC90 [2] was 23 nM, the EC50 [32] was 0.26 nM and the EC50 [22] was 0.26 nM.
